The values below come from patent US5879896A, “Method of screening for inhibitors of human thyrotropin releasing hormone (TRH) receptor” (Takeda Chemical Industries, Ltd., priority 1993, dated 1999).

The subject of one test is pituitary glands. As to conditions: literature; cited from earlier work.
Test [1] has as its target T1, human TRH receptor (Homo sapiens, UniProt P34981).
T1 sequence (P34981 1-398): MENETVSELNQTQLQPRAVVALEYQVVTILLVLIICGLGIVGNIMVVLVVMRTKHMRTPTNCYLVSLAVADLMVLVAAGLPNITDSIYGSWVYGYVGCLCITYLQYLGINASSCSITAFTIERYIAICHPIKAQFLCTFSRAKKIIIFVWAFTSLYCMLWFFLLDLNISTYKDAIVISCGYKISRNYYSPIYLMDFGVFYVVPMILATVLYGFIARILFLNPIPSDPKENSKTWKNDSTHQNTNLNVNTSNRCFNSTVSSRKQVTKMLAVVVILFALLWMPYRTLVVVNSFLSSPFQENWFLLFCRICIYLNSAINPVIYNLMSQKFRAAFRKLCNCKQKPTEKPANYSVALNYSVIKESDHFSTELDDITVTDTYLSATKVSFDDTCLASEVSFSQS
The test can be described thus: c-fos promoter / secretive alkaline phosphatase assay in human TRH receptor expression CHO cells (Example 9). In kind it is cell-based. Set-up: translation frame (open reading frame) of the human TRH receptor was constructed on pUC118; expressed in transfected cells; host or cells: CHO dhfr- cells (plasmid pAKKO1.11 with the human TRH receptor open reading frame). As to conditions: c-fos promoter activation, overnight (FIG. 14).
Experimental: An insertion of a secretive alkaline phosphatase gene linked to a c-fos promoter into a TRH receptor expression cell was conducted as follows:
5×10^5 TRH receptor expression CHO cells were inoculated onto a 10 cm plate and they were cultivated for 24 hours in Ham's F12 medium (Lifetech Oriental) equipped with 10% fetal bovine serum. 3 μg of a vector (pSVP4-Ap-neo, FIG. 13) which was introduced by a secretive alkaline phosphatase gene downstream from the c-fos promoter was introduced into the CHO cells using a gene introducing kit (Cell Phect, Pharmacia) by calcium phosphate method. The cells introduced by the vector were cloned in the above-described medium equipped with 500 μg/ml of G418. 39 clones were isolated and clones which have high TRH responsiveness were further selected.
Cell stimulating activity through a TRH receptor using activation of c-fos promoter as an indicator was assayed as follows:
Each 5×10^4 of the above-described transformants were inoculated onto 96 hole plates for tissue cultivation (Corning) and they were cultivated for a night. […] The plate was assayed by a fluorescence plate reader (Fluoroskan II, Titertek) at 365 nm of excitation and 450 nm of luminescence.

In test [2] the test system is CHO dhfr- cells. Nature of the test: Release of [3H]-labeled arachidonic acid from control CHO dhfr- cells (Example 7). The class given is cell-based, Chinese hamster. As to conditions: TRH added (FIG. 10). As to the method:
(§1) CHO cells into which the human TRH receptor DNAs obtained in Example 4 were subcultured at a density of 1.0×10^6 cells/well to a 12-well tissue culture plate (Sumitomo Bakelite) and cultivated for 24 hours. The medium was removed and replaced by a fresh medium. Then, [^3 H] […] arachidonic acid (du Pont/NEN, specific activity: 60-100 Ci/mmol) was added to give a concentration of 0.5 μCi/well. After addition of arachidonic acid, the cells were further cultivated for 24 hours, and washed three times with Hanks' balanced salt solution (HBSS) supplemented with 0.05% BSA. Thereafter, 495 μl/well of HBSS supplemented with 0.05% BSA was added thereto. Then, 5 μl of a test solution was added thereto, and incubation was conducted for 30 minutes at room temperature to release arachidonic acid in the medium. HBSS (400 μl) of the supernatant was recovered, and mixed with liquid scintillator A (Wako Pure Chemical Industries). The amount of released [^3 H]-labeled arachidonic acid was measured by use of a liquid scintillation counter (Beckmann).

Test [3] deals with T1, human TRH receptor. The test can be described thus: [3H]TRH binding to Sf9 cells infected with recombinant baculovirus carrying human TRH receptor genes (Example 3). Set-up: translation frame (open reading frame) of the human TRH receptor was constructed on pUC118; expressed in transfected cells. The settings on record: 1000-fold unlabeled TRH (10 μM) (FIG. 8).
Test [4] has as its target T1, human TRH receptor. The test can be described thus: Antagonism of [3H]TRH binding in CHO dhfr- cells transformed with human TRH receptor DNA (Examples 5 and 6). Set-up: translation frame (open reading frame) of the human TRH receptor was constructed on pUC118; expressed in transfected cells; host or cells: CHO dhfr- cells (plasmid pAKKO1.11 with the human TRH receptor open reading frame). As to conditions: 1 h.

The target of test [5] is T1, human TRH receptor. The test can be described thus: Release of [3H]-labeled arachidonic acid from CHO cells into which human TRH receptor DNAs were introduced (Example 7). Further details: translation frame (open reading frame) of the human TRH receptor was constructed on pUC118; expressed in transfected cells; host or cells: CHO dhfr- cells (plasmid pAKKO1.11 with the human TRH receptor open reading frame). In kind it is cell-based. The settings on record: TRH concentration dependence, compared with control (HBSS alone) (FIG. 10). On the procedure:
as §1
Further, in the receptor binding experiment of Example 6, the releasing activity of arachidonic acid was measured using 4 kinds of compounds strongly that can antagonize the binding of [^3 H]

In test [6] the test system is CHO dhfr- cells. Nature of the test: [3H]TRH binding to CHO dhfr- cell line into which no human TRH receptor DNA was introduced (Example 4). Further details: species or system Chinese hamster. The settings on record: no human TRH receptor DNA introduced (FIG. 9). On the procedure: This plasmid was cleaved with SalI and ClaI. The plasmid obtained in Example 3 in which the translation frame (open reading frame) of the human TRH receptor was constructed on pUC118 was cleaved with HindIII, and repaired with a Klenow fragment, followed by addition of an SalI linker. The resulting fragment was further cleaved with SmaI, and a fragment containing the translation frame (open reading frame) of the human TRH receptor and a ClaI linker were added thereto. This was cleaved with SalI and ClaI, and thereafter, the plasmid DNA previously cleaved with SalI and ClaI was bound thereto to complete an expression plasmid. This plasmid DNA was purified by cesium chloride equilibrium density gradient centrifugation, and partially introduced into the CHO dhfr^- cell line with a gene introduction kit (CellPhect, Pharmacia) by the calcium phosphate precipitation method. The original CHO dhfr^- cell line is impossible to grow in a medium not containing a nucleoside and a nucleotide, because of lack of dhfr phenotype. […] The cells were dissolved in 500 μl of 1% SDS and 0.2N NaOH, and the radioactivity contained therein was measured by use of liquid scintillator A. In order to know the non-specific binding, a group was also prepared to which non-labeled TRH was added to a final concentration of 10 μM in addition to [^3 H] […]

The mark [7] stands for this setting: read-out: Antagonistic Rate (%) at Each Concentration (-log M).
The mark [8] stands for this setting: read-out: Antagonistic Rate (%) at Each Concentration (-log M) (*1).

Like-named read-outs stand apart in the source and are kept apart here.

Regarding `NC(=O)[C@@H]1CCCN1C(=O)[C@H](Cc1cnc[nH]1)NC(=O)[C@@H]1CCC(=O)N1` [TRH, pGlu His Pro NH2], the “Secretion of pituitary hormones, in words” value in the test with pituitary glands was “promoting secretion of thyroid stimulating hormone and prolactin of the pituitary glands”. The “Alkaline phosphatase secretion into supernatant, in words” value on human TRH receptor [1] was “alkaline phosphatase secrets into the supernatant depending on the concentration of TRH added”. The “Amount of arachidonic acid released, in words” value in the test on CHO dhfr- cells [2] is recorded as “no change was observed”. Further, at human TRH receptor [3], the “Antagonism of [3H]TRH binding by unlabeled TRH, in words” value was “antagonized the binding”. Further, at human TRH receptor [4] (setting [7]), the inhibition at 1 pM worked out at 0%, the inhibition at 10 pM was found to be 0.7%, the inhibition at 0.0001 µM came out at 0.3% and the inhibition at 0.001 µM is 7.2%. Further, on human TRH receptor [4] (setting [7]), the inhibition at 0.01 µM stood at 52%, the inhibition at 0.1 µM is 90.7%, the inhibition at 1 µM is 98.7% and the inhibition at 10 µM was determined as 99.7%. Also, at human TRH receptor [4] (setting [8]), the inhibition at 0.0001 µM is -0.7%, the inhibition at 0.001 µM is 4.2%, the inhibition at 0.01 µM was 39.8% and the inhibition at 0.1 µM turned out to be 83.9%. Moreover, on human TRH receptor [4] (setting [8]), the inhibition at 1 µM worked out at 97.8% and the inhibition at 10 µM worked out at 99.7%. In addition, the “Amount of arachidonic acid released, in words” value at human TRH receptor [5] is recorded as “increase the amount of arachidonic acid released depending upon the concentration”.
With “[L-proline-2,3,4,5-^3 H(N)]-(Pyro)Glu-His-Pro-NH2 [[^3 H] TRH]”, the “Specific binding, in words” value with CHO dhfr- cells [6] was “no specific binding was detected at all”.
